The results in this text go back to ChEMBL document CHEMBL1201862, “PubChem BioAssay data set” (2004).

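1) Cells in 96-well plates. 2) Compound, 48 h, 5 concentrations. 3) Linear interpolation between surrounding doses. 4) Unreached endpoint = highest concentration. GI50 = concentration required for 50% inhibition of growth.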 Active and inactive are the calls of the source. Cut-off read from the data, not from the text of the source: active = GI50 up to about 1.1 µM and inactive = higher.

Test systems include HOP-62; MDA-MB-435; RXF 393; CAKI-1; SK-MEL-2; NCI-H460; SNB-19; 786-0; HCT-15; UACC-62; RPMI-8226; HL-60; SNB-75; NCI-H522; HCT-116; HOP-92; COLO 205; OVCAR-8; SK-MEL-5; MCF7.
Test in all cases: DTP human tumour cell line panel, 48 h

The GI50 is the concentration that inhibits growth by half. With `CC[C@@]1(O)C[C@H](OC2CC(N(C)C)C(OC3CC(O)C(OC4CCC(=O)C(C)O4)C(C)O3)C(C)O2)c2c(cc3c(c2O)C(=O)c2c(O)ccc(O)c2C3=O)[C@H]1C(=O)OC` (stereo partly drawn), the 50% growth inhibitory concentration (GI50) in the test with HOP-62 was 8.75e-05 µM (active); in the test with MDA-MB-435 it was 0.000929 µM (active); in the test on RXF 393, 0.000344 µM (active); with CAKI-1 it was < 1e-05 µM (active); in the test with SK-MEL-2, 7.87e-05 µM (active); in the test on NCI-H460 it was 2.33e-05 µM (active). For the same compound, the 50% growth inhibitory concentration (GI50) with SNB-19 is 5.51e-05 µM (active); in the test on 786-0, < 0.01 µM (active); in the test on HCT-15, 9.75e-05 µM; with UACC-62, 0.00341 µM (active); in the test on RPMI-8226, 7.83e-05 µM (active); in the test on HL-60, 6.56e-05 µM (active). In addition, the GI50 in the test on SNB-75 was 0.000105 µM (active); with NCI-H522, 5.28e-05 µM (active); in the test with HCT-116 it was 2.32e-05 µM (active); with HOP-92, 0.0008 µM (active); in the test on COLO 205, 7.55e-05 µM (active); in the test on OVCAR-8, 0.00233 µM (active). In addition, the 50% growth inhibitory concentration (GI50) in the test with SK-MEL-5 was 0.000535 µM (active).

`CCOC(=O)c1ccc(-n2cnc(-c3ccc([N+](=O)[O-])cc3)c2)cc1`: the GI50 was 94.2 µM (inactive) with HOP-62; > 100 µM (inactive) with MDA-MB-435; > 100 µM (inactive) with CAKI-1; > 100 µM (inactive) with SK-MEL-2; > 100 µM (inactive) with NCI-H460; 35.7 µM (inactive) with SNB-19. For the same compound, the GI50 was > 100 µM (inactive) with 786-0; more than 100 µM in the test with HCT-15; > 100 µM (inactive) in the test on UACC-62; > 100 µM (inactive) with RPMI-8226; > 100 µM (inactive) in the test with HL-60; 40.6 µM (inactive) in the test on SNB-75. The GI50 is 13.1 µM (inactive) with NCI-H522; 31.4 µM (inactive) in the test with HCT-116; > 100 µM (inactive) with COLO 205; 72.9 µM (inactive) with MCF7; > 100 µM (inactive) with OVCAR-8; 25.3 µM (inactive) with SK-MEL-5.

In the case of `O=Cc1ccc2[nH]c(=O)oc2c1`, the GI50 is > 100 µM (inactive) in the test on HOP-62; > 100 µM (inactive) with MDA-MB-435; 94.8 µM (inactive) in the test with RXF 393; > 100 µM (inactive) in the test on CAKI-1; > 100 µM (inactive) in the test with SK-MEL-2; > 100 µM (inactive) in the test on NCI-H460. In addition, the GI50 with SNB-19 is > 100 µM (inactive); in the test on 786-0 it was > 100 µM (inactive); in the test on HCT-15 it was more than 100 µM; in the test on UACC-62 it was > 100 µM (inactive); with RPMI-8226, > 100 µM (inactive); in the test on HL-60 it was 99.5 µM (inactive). Further, the GI50 in the test on HCT-116, in the test with COLO 205, with MCF7 and in the test with OVCAR-8 was > 100 µM (inactive) throughout.

Consider `CCCCCCn1c(SC)nc(COC(=O)NC)c1COC(=O)NC`, for which the GI50 in the test with HOP-62 was 19.6 µM (inactive); in the test with MDA-MB-435, 19.7 µM (inactive); in the test on CAKI-1, 15.7 µM (inactive); in the test on SK-MEL-2 it was 25.8 µM (inactive); in the test on NCI-H460, 18.1 µM (inactive); with SNB-19, 16.1 µM (inactive). The GI50 in the test on 786-0 was 15.3 µM (inactive); with HCT-15, 32.4 µM; with UACC-62, 14.8 µM (inactive); with RPMI-8226, 22.4 µM (inactive); in the test on HL-60, 19.6 µM (inactive); with SNB-75, 14.6 µM (inactive). Moreover, the GI50 in the test with NCI-H522 is 11.4 µM (inactive); in the test on HCT-116 it was 17.8 µM (inactive); with COLO 205 it was 15.8 µM (inactive); in the test with MCF7 it was 20.1 µM (inactive); in the test on OVCAR-8 it was 17.4 µM (inactive); in the test on SK-MEL-5, 16.6 µM (inactive).

Regarding `CO/N=C(\C)CCC#Cc1ccccc1C(=O)OC`, the GI50 in the test with HOP-62, in the test on MDA-MB-435, in the test with RXF 393, with CAKI-1, in the test with SK-MEL-2 and in the test with NCI-H460 was > 10 µM (inactive) each time. Moreover, the GI50 is > 10 µM (inactive) with SNB-19; > 10 µM (inactive) in the test on 786-0; more than 10 µM in the test on HCT-15; > 10 µM (inactive) in the test on UACC-62; > 10 µM (inactive) in the test with RPMI-8226; > 10 µM (inactive) in the test on HL-60. For the same compound, the GI50 in the test on HCT-116, in the test on COLO 205, in the test with MCF7, in the test with OVCAR-8 and in the test with SK-MEL-5 was > 10 µM (inactive) in each case.

For the compound `CC(C)(C)/N=C1\C(=O)C2(C)CCC1C2(C)C` (stereo not drawn), the GI50 in the test on HOP-62, in the test on MDA-MB-435, with RXF 393, in the test with CAKI-1, in the test on SK-MEL-2 and in the test on NCI-H460 was > 100 µM (inactive) throughout. The GI50 in the test with SNB-19 was > 100 µM (inactive); in the test on 786-0, > 100 µM (inactive); with HCT-15 it was more than 100 µM; in the test on UACC-62 it was 14.3 µM (inactive); in the test on RPMI-8226 it was > 100 µM (inactive); with HCT-116, > 100 µM (inactive). Also, the GI50 is > 100 µM (inactive) in the test on COLO 205, 16.8 µM (inactive) with MCF7, > 100 µM (inactive) with OVCAR-8 and > 100 µM (inactive) with SK-MEL-5.

In the case of `CCn1c2ccccc2c2ccc(C3C(C(=O)OC)=C(C)NC(C)=C3C(=O)OC)cc21`, the GI50 was 55.1 µM (inactive) in the test with HOP-62; 45.6 µM (inactive) in the test with MDA-MB-435; 15.4 µM (inactive) with RXF 393; 31 µM (inactive) in the test on CAKI-1; 35.5 µM (inactive) in the test with NCI-H460; 55.8 µM (inactive) in the test with SNB-19. The GI50 was 38.2 µM (inactive) in the test on 786-0; 46.3 µM in the test with HCT-15; 87.9 µM (inactive) in the test on UACC-62; 21.1 µM (inactive) in the test on RPMI-8226; 20.1 µM (inactive) in the test on HL-60; 51.5 µM (inactive) in the test with SNB-75. Besides, the GI50 in the test on HCT-116 was 43.7 µM (inactive); in the test with COLO 205, 48.5 µM (inactive); in the test with MCF7, 27 µM (inactive); with OVCAR-8, 49.3 µM (inactive); with SK-MEL-5, 43.6 µM (inactive).

For `O=C(O)CNn1c(SCC(=O)O)nnc(/C=C/c2c(O)ccc3ccccc23)c1=O`, the GI50 with HOP-62 is 16.1 µM (inactive); in the test with MDA-MB-435 it was 75.7 µM (inactive); in the test on CAKI-1 it was 29.5 µM (inactive); with SK-MEL-2 it was 61.8 µM (inactive); in the test with NCI-H460, 4.91 µM (inactive); in the test with SNB-19, 64.7 µM (inactive). The GI50 is 30.3 µM (inactive) in the test with 786-0; 17.6 µM with HCT-15; 21.3 µM (inactive) in the test on UACC-62; 29.8 µM (inactive) with RPMI-8226; 9.98 µM (inactive) in the test on HL-60; 29.8 µM (inactive) in the test on NCI-H522. For the same compound, the GI50 was 28.8 µM (inactive) in the test on HCT-116; 34.4 µM (inactive) with COLO 205; 24 µM (inactive) in the test on MCF7; 3.79 µM (inactive) with OVCAR-8; 18.7 µM (inactive) in the test with SK-MEL-5.
